Assay results from patent publication US10471035B2, “Compositions and methods for using esters of meroterpenes and of other resveratrol analogues” (Sunny BioDiscovery, priority 2014, dated 2019).
Values after ≈ are worked out from the molar mass of the structure shown.

Tests used:
[1] = tested on: non-irradiated neonatal HDF; assay: Cytotoxicity on non-irradiated neonatal HDF monolayers; format: cell-based, human; conditions: human, 12.5 μg/ml
[2] = tested on: mouse melanoma cells (B16F10); assay: B16F10 melanoma growth and melanin; format: cell-based
From the text: Instead, cells cultured in the presence of SBD.SE grew slower and if allowed to reach monolayer, they become growth-arrested due to contact inhibition. […] Other retinoids, such as bexarotene, are known to have antineoplastic activity against cancers such as cutaneous T cell lymphoma.
The mechanism of action for this effect may be multifactorial and involve the inhibition of tyroinase and/or melanin secretion by melanocytes.

adult HEK = assay: Adult HEK proliferation; format: cell-based, human; conditions: 2.5 μg/ml
[3] = DPPH assay (free radical scavenging); format: biochemical; conditions: 520 nm
From the text: The objective of this experiment was to determine the antioxidant capacity of SBD.SE, using DPPH assay methodology. DPPH (2,2-diphenyl-1-picrylhydrazyl) is a stable free radical. The principle of the DPPH assay uses the reduction of the DPPH radical (purple) to diphenylpicrylhydrazine (yellow) as an indication of free radical scavenging capacity of a given test material (Schenk, G. H., Swieczkowski, N. K., “Colorimetric determination of pyrogallol and 2,6-dimethoxyphenol with diphenylpicrylhydrazyl,” Talanta, 1971, 18:230-4). Following the incubation of a test agent with DPPH solution, a reduction in absorbance at 520 nm compared to control is indicative of DPPH-scavenging. The degree of DPPH scavenging activity is expressed as % water control.

[4] = UVB irradiation, HPLC-MS profile; format: physicochemical
From the text: Both compounds were irradiated with UVB light and their HPLC-MS profile was compared to their respective non-irradiated controls. FIGS. 2, 3, 6, and 7 show HPLC chromatograms of UVB-irradiated (lower portions) and non-irradiated samples (upper portions) of bakuchiol (FIGS. 2 and 3) and SBD.SE (FIGS. 6 and 7) detected at 254 nm (FIGS. 2 and 6) and 230 nm (FIGS. 3 and 7).

P. acnes = assay: MIC against planktonic P. acnes; format: cell-based, Propionibacterium acnes; conditions: Cutibacterium acnes; exponentially-growing planktonic bacteria, oxygen-free atmosphere; read-out: MIC (minimal inhibitory concentration)
Experimental: Serial dilutions of SBD.SE and SBD.FA were incubated with exponentially-growing planktonic P. acnes bacteria in oxygen-free atmosphere.
The MIC (minimal inhibitory concentration) for SBD.SE was determined to be about 30 μg/ml and for SBD.FA—about 60 μg/ml.

RAR = assay: Cignal RAR reporter assay; format: cell-based; conditions: up to 50 μg/ml
From the text: Tissue irritation is a common side effect of retinoids. It is mediated, at least in part, by retinoid interaction with retinoic acid receptors (RARs; Thacher S M, Vasudevan J, Chandraratna R A. Therapeutic applications for ligands of retinoid receptors. Curr Pharm Des. 2000 January; 6(1):25-58; Kambayashi H, Odake Y, Takada K, Funasaka Y, Ichihashi M, Kato S. N-retinoyl-D-glucosamine, a new retinoic acid agonist, mediates topical retinoid efficacy with no irritation on photoaged skin. Br J Dermatol. 2005 December; 153 Suppl 2:30-6).

3T3 cells = assay: 3T3 Neutral Red phototoxicity (OECD 432); format: cell-based; conditions: up to at least 100 μg/ml
Experimental: Phototoxicity is defined as light-activated cytotoxicity. […] The protocol followed in this example was based on the OECD 432 Guidelines. Four 96 well plates were seeded with 3T3 cells (Sigma, St. Louis, Mo.; cat. 93061524-1VL) at 10,000 cells per well in DMEM supplemented with 10% iron-fortified calf serum, and grown overnight in humidified atmosphere at 37° C. in 5% CO2. Serial dilutions of SBD.SE and chlorpromazine (positive control) were added to 2 plates each. […]
[…] Plates were returned to the incubator for 24 h, afterward the medium was removed, cells were rinsed with PBS and placed in Neutral Red medium at 50 μg/ml in which cells were incubated for 3 more hours. Wells were then washed with PBS and Neutral Red was extracted from cells with 1.0% Glacial Acetic Acid/50% Ethanol/49% H2O solution.
Following a 30-minute extraction with mixing, the absorbance of each well was measured at 570 nm with Molecular Devices SpectraMax® microplate spectrophotometer. P values were calculated using two-tailed Student's test and p=0.05 was set as borderline for statistical significance.

cytokine-treated HEK = assay: Morphology of cytokine-treated HEK; format: cell-based, human; conditions: 10 μg/ml; IL17A, IL22 and TNF-alpha
From the text: This is in agreement with the Example 3, showing that SBD.SE decreases cellular response to cytokine stimulus (Table 1).

C=C[C@@](C)(/C=C/c1ccc(OC(=O)c2ccccc2O)cc1)CCC=C(C)C [SBD.SE, Salicylic acid ester of bakuchiol]
cytotoxicity [1]: 18% | growth of B16F10 cells ([2]; 1 μg/ml to 10 μg/ml): inhibited the growth | inhibition at 2.5 µg/mL ([2]; Mus musculus, B16-F10, 2.5 μg/ml, read-out: inhibition of B16F10 melanocyte proliferation): 44% | melanin in growth medium ([2]; versus darkened medium of water control): completely deprived of melanin | inhibition of adult HEK proliferation (adult HEK): not inhibited | DPPH color (% Control) ([3]; 0.5 ug/ml): 86 % Control | DPPH color (% Control) ([3]; 2 ug/ml): 89 % Control | DPPH color (% Control) ([3]; 10 ug/ml): 59 % Control | DPPH color (% Control) ([3]; 16 ug/ml): 28 % Control | DPPH color (% Control) ([3]; 40 ug/ml): 6 % Control | stability under UVB irradiation (HPLC-MS) [4]: no difference in mass of the peaks | MIC (P. acnes): ~30 µg/mL (≈ 79.7 µM) | transactivation of RAR (RAR): no effect | cytotoxicity in absence and presence of UVB light (3T3 cells): lack of significant cytotoxicity | cytokine-induced morphologic changes (cytokine-treated HEK): prevents these changes
